Test results from US11273218B2, “Methods for treating Angelman syndrome and related disorders” (Cavion, Inc., priority 2015, dated 2022).
Like-named read-outs stand apart in the source and are kept apart here.

Columns and labels:
CaMKIIα = conditions: striatum, cited from earlier work
UBE3/129sv mice = test: Audiogenic-induced epilepsy test (Test 1) in Angelman syndrome mouse model; assay type: in vivo; conditions: oral gavage for 7 days, AS mice
Experimental: Three separate tests were performed to determine effects of two compounds, mibefradil and MK-8998 on behavioral and physiological deficits and epilepsy in a mouse model for Angelman syndrome. The tests included: audiogenic-induced epilepsy test (Test 1, T1), a battery of motor/behavioral tests (Test 2, T2) and long-term potentiation measurements (LTP, Test 3, T3). Completion of each test provided a quantitative result of mibefradil or MK-8998 effect on this test. For all three tests, 2 separate groups of mice were generated: group 1 for test 1 and group 2 for tests 2 and 3, as shown below in see Table 2 and each group consists of 6 subgroups, a-f.
For all behavioral and electrophysiology experiments female Ube3am^−/p^+KO mice (i.e., AS mice) were crossed with wild-type males, to generate heterozygous AS mice and littermate controls in the F1 hybrid 12952-C57BL/6 background. For epilepsy tests, AS mice are crossed with controls in the 12952/SvPasCrl background. In total, 2 groups of mice are required: group 1 for the epilepsy test (Table 2, group 1a-f) and group 2 for the behavioral test battery and electrophysiology (Table 2, group 2a-f). […] The number of mice used per test/subgroup is indicated in Table 2 and ranges from 5-7 mice/subgroup for electrophysiology, 10 mice/subgroup for epilepsy test, and 12 to 15 mice/subgroup for behavioral test battery. […]

## COCC(=O)O[C@]1(CCN(C)CCCc2nc3ccccc3[nH]2)CCc2cc(F)ccc2[C@@H]1C(C)C [mibefradil]
CaMKIIα; 5 μM
  decrease of threonine autophosphorylation of CaMKIIα: 37%

## CC(C)c1ccc(CC(=O)N[C@H](C)c2ccc(OCC(F)(F)F)cn2)cc1 [MK-8998]
UBE3/129sv mice; 60 mg/kg, audiogenic-induced seizures
  treated animals with seizures eliminated completely: about 80%
UBE3/129sv mice; 10, 30, 60 mg/kg
  effect on audiogenic-induced seizures (in words): eliminated seizures in a dose-dependent manner

## [Cl][Ni][Cl] [NiCl2]
CaMKIIα; 100 μM
  decrease of threonine autophosphorylation of CaMKIIα: 35%
